Measurements: US20230338568A1, “NOVEL ISOMERIC COMPOUNDS COMPRISING A RING-OPENED THIOSUCCINIMIDE GROUP, AN OLIGOPEPTIDE FRAGMENT AND A CHIRAL MOIETY” (priority 2020, published 2023)

Columns and labels:
[1] = tested on: HER2 positive cell HCC1954; test: Cytotoxicity of α-ADCs in HER2 positive cell HCC1954 (CellTiter-Glo); assay type: cell-based, Human; details: HER2 positive HCC1954, 72 h
Experimental: (§1) Cell viability is tested using CellTiter-Glo® Luminescent Kit (Promega, Cat.# G7573) read by a Biotek Cytation3 Imaging reader.
(§2) Study design was shown as in Table 21 and Table 22. […] Cell vitality formula: Viability = (RLU (X) - RLU (Puro))/(RLU (Control) - RLU (Puro)) ^∗ 100%. A logistic model (4-parameter) will be used for data processing, IC50 calculation and curve fitting by Prism 6 software.

[2] = tested on: HER2 negative cell MDA-MB-468; test: Cytotoxicity of α-ADCs in HER2 negative cell MDA-MB-468 (CellTiter-Glo); assay type: cell-based; details: HER2 negative MDA-MB-468, 72 h
Experimental: as §1, §2

Question: Which IC50 [1] does the source give for `COc1cc2cc(c1Cl)N(C)C(=O)C[C@H](OC(=O)[C@H](C)N(C)C(=O)CCS)[C@]1(C)O[C@H]1[C@H](C)[C@@H]1C[C@@](O)(NC(=O)O1)[C@H](OC)/C=C/C=C(\C)C2` [DM1] here?
Answer: 4.2 nM

Question: What about the IC50 [2] of the same molecule?
Answer: 1.5 nM
